Test results from ChEMBL document CHEMBL1201862, “PubChem BioAssay data set” (2004).
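Five concentrations, 48 hours, 96-well plates. GI50 = concentration required for 50% inhibition of growth.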 Activity calls are given as the source filed them. No stated cut-off is given here; in the data, active = GI50 up to about 1.1 µM and inactive = higher.

Columns and labels:
Assay in all cases: inhibition of tumour cell growth, NCI panel, 48 h
M14 = test system: M14
ACHN = test system: ACHN
HCT-116 = test system: HCT-116
Hs-578T = test system: Hs-578T
HOP-62 = test system: HOP-62
HT-29 = test system: HT-29
PC-3 = test system: PC-3
U-251 = test system: U-251
RXF 393 = test system: RXF 393
MOLT-4 = test system: MOLT-4
CAKI-1 = test system: CAKI-1
NCI/ADR-RES = test system: NCI/ADR-RES
EKVX = test system: EKVX
HCC 2998 = test system: HCC 2998
OVCAR-4 = test system: OVCAR-4
SW-620 = test system: SW-620
MDA-MB-435 = test system: MDA-MB-435
MDA-MB-231 = test system: MDA-MB-231
OVCAR-5 = test system: OVCAR-5
UO-31 = test system: UO-31

Compound | GI50 (M14) | GI50 (ACHN) | GI50 (HCT-116) | GI50 (Hs-578T) | GI50 (HOP-62) | GI50 (HT-29) | GI50 (PC-3) | GI50 (U-251) | GI50 (RXF 393) | GI50 (MOLT-4) | GI50 (CAKI-1) | GI50 (NCI/ADR-RES) | GI50 (EKVX) | GI50 (HCC 2998) | GI50 (OVCAR-4) | GI50 (SW-620) | GI50 (MDA-MB-435) | GI50 (MDA-MB-231) | GI50 (OVCAR-5) | GI50 (UO-31)
Cc1cc(C(F)(F)F)cc(-n2nc(NS(=O)(=O)c3cc(C)c(Cl)cc3S)nc2N)n1 | 54.1 µM (inactive) | 53.3 µM (inactive) | 33.7 µM (inactive) | 41 µM (inactive) | 23.3 µM (inactive) | 42 µM (inactive) | 47.4 µM (inactive) | 42.2 µM (inactive) | > 100 µM (inactive) | 24.3 µM (inactive) | 7.46 µM (inactive) | 30.8 µM (inactive) | 55.6 µM (inactive) | 34.8 µM (inactive) | > 95.3 µM (inactive) | > 100 µM (inactive) | 41.4 µM (inactive) | 37.7 µM (inactive) |  | 
COc1ccc(C(=O)CC(c2ccc(OC)c(OC)c2)c2c(O)oc3ccccc3c2=O)cc1OC (stereo unspecified) | > 100 µM (inactive) | > 100 µM (inactive) | > 100 µM (inactive) | > 100 µM (inactive) | > 100 µM (inactive) | > 100 µM (inactive) | > 100 µM (inactive) | > 100 µM (inactive) | > 100 µM (inactive) | > 100 µM (inactive) | > 100 µM (inactive) | > 100 µM (inactive) | > 100 µM (inactive) | > 100 µM (inactive) | > 100 µM (inactive) | > 100 µM (inactive) | > 100 µM (inactive) | > 100 µM (inactive) | > 100 µM (inactive) | > 100 µM (inactive)
Cc1nn(C(=O)c2ccccc2O)c2c1C(c1ccc([N+](=O)[O-])cc1)SC(=N)N2 (stereo unspecified) | 7.19 µM (inactive) | 1.17 µM (inactive) | 2.48 µM (inactive) | 0.676 µM (active) | 4.92 µM (inactive) | > 6.67 µM (inactive) | > 9.53 µM (inactive) | 2.9 µM (inactive) | 2.54 µM (inactive) | 4.94 µM (inactive) | 2.19 µM (inactive) | 4.51 µM (inactive) | > 10 µM (inactive) | > 10 µM (inactive) | 3.56 µM (inactive) | 6.17 µM (inactive) | 1.45 µM (inactive) | > 5.94 µM (inactive) | > 7.76 µM (inactive) | 4.49 µM (inactive)
COC(=O)CC1C=CC(C)(OC)OO1 (stereo unspecified) | > 100 µM (inactive) | 94.4 µM (inactive) | > 100 µM (inactive) | > 100 µM (inactive) | > 100 µM (inactive) | > 100 µM (inactive) | > 100 µM (inactive) | > 100 µM (inactive) | 51.1 µM (inactive) | > 10 µM (inactive) | > 100 µM (inactive) | > 100 µM (inactive) | > 100 µM (inactive) | 59.7 µM (inactive) | 97.9 µM (inactive) | 27.2 µM (inactive) | > 100 µM (inactive) | > 100 µM (inactive) | > 100 µM (inactive) | > 100 µM (inactive)
COP(=O)(OC)C(C)(C)NC(=O)NC(F)(F)F | 0.0401 µM (active) | > 100 µM (inactive) | > 100 µM (inactive) | 31.1 µM (inactive) | > 100 µM (inactive) | > 100 µM (inactive) | > 100 µM (inactive) | > 100 µM (inactive) | > 100 µM (inactive) | > 100 µM (inactive) | 0.01 µM (active) | > 100 µM (inactive) | > 100 µM (inactive) | > 100 µM (inactive) | > 100 µM (inactive) | > 100 µM (inactive) | > 100 µM (inactive) | > 100 µM (inactive) | > 100 µM (inactive) | > 100 µM (inactive)
NC(=O)NCCCC(NC(=O)OCCCCCn1ccc(=O)[nH]c1=O)C(=O)O (stereo unspecified) | > 100 µM (inactive) | > 100 µM (inactive) | > 100 µM (inactive) | > 100 µM (inactive) | > 100 µM (inactive) | > 100 µM (inactive) | > 100 µM (inactive) | > 100 µM (inactive) | > 100 µM (inactive) | > 100 µM (inactive) | > 100 µM (inactive) | > 100 µM (inactive) | > 100 µM (inactive) | > 100 µM (inactive) | > 100 µM (inactive) | > 100 µM (inactive) | > 100 µM (inactive) | > 100 µM (inactive) | > 100 µM (inactive) | > 100 µM (inactive)
FC1(F)ON2CCc3ccccc3C2[C@H]1c1ccccc1 (stereo partly specified) | 82 µM (inactive) | > 10 µM (inactive) | 65.6 µM (inactive) | 4.25 µM (inactive) | 90.4 µM (inactive) | > 10 µM (inactive) | > 10 µM (inactive) | 74 µM (inactive) | 76.4 µM (inactive) | > 10 µM (inactive) | > 10 µM (inactive) | 92.9 µM (inactive) | > 10 µM (inactive) | > 10 µM (inactive) | > 10 µM (inactive) | > 10 µM (inactive) | > 10 µM (inactive) | 48.9 µM (inactive) | > 10 µM (inactive) | > 100 µM (inactive)
CC(=O)OCC12CN(C#N)C3C4COC(CC41)C1(C(=O)N(C)c4ccccc41)C32 (stereo unspecified) | 20.2 µM (inactive) | 14.3 µM (inactive) | 19.3 µM (inactive) | 18.2 µM (inactive) | 24.6 µM (inactive) | 33 µM (inactive) | 33.2 µM (inactive) | 56.1 µM (inactive) | 12.1 µM (inactive) | 7.48 µM (inactive) | 17.3 µM (inactive) | 22.2 µM (inactive) | 20.7 µM (inactive) | 28.2 µM (inactive) | 16.1 µM (inactive) | 22 µM (inactive) | 26.8 µM (inactive) | 13.4 µM (inactive) | 33.4 µM (inactive) | 13.3 µM (inactive)
CCN(CC)CCn1c(=O)c2ccccc2n2c3c(=O)n(C)c(=O)n(C)c3nc12 | 3.16 µM (inactive) | 0.25 µM (active) | 1.55 µM (inactive) | 2.01 µM (inactive) | 0.718 µM (active) | 2.2 µM (inactive) | 2.38 µM (inactive) | 1.43 µM (inactive) | 5.27 µM (inactive) | 0.239 µM (active) | 0.252 µM (active) | 3.33 µM (inactive) | 3.59 µM (inactive) | 1.93 µM (inactive) | 4.27 µM (inactive) | 1.22 µM (inactive) | 4.71 µM (inactive) | 5.14 µM (inactive) | 2.53 µM (inactive) | 2.11 µM (inactive)
CC1=CC[C@](C)(O)[C@@]2(C)CC[C@H]3C(=C(C)C)C(=O)C[C@]3(C)C[C@H]12 | 24.8 µM (inactive) | 38.7 µM (inactive) | 14.1 µM (inactive) | 38.2 µM (inactive) | 42.2 µM (inactive) | 24.8 µM (inactive) | 21.4 µM (inactive) | > 50 µM (inactive) | 30 µM (inactive) | 8.07 µM (inactive) | 16 µM (inactive) | 16.5 µM (inactive) | > 50 µM (inactive) | > 50 µM (inactive) | > 50 µM (inactive) | 27 µM (inactive) | 18.7 µM (inactive) | > 50 µM (inactive) | > 50 µM (inactive) | 28.8 µM (inactive)
O=C1c2ccccc2C(=O)N1c1nc(-c2ccc(Cl)cc2)cc(N2N=C(c3ccc(Br)cc3)CC2c2ccccc2)n1 (stereo unspecified) | 3.73 µM (inactive) | 3.9 µM (inactive) | 2.01 µM (inactive) | 3.74 µM (inactive) | 2.92 µM (inactive) | 2.94 µM (inactive) | 3.93 µM (inactive) | 1.67 µM (inactive) | 9.16 µM (inactive) | 2.51 µM (inactive) | 1.51 µM (inactive) | 1.97 µM (inactive) | 0.792 µM (active) | 0.301 µM (active) | 4.23 µM (inactive) | 2.53 µM (inactive) | 0.745 µM (active) | 4.07 µM (inactive) | 1.04 µM (active) | 4.81 µM (inactive)
Cc1n[nH]c(=O)n1/N=C/c1ccco1 | > 100 µM (inactive) | > 100 µM (inactive) | > 100 µM (inactive) | > 100 µM (inactive) | > 100 µM (inactive) | > 100 µM (inactive) | > 100 µM (inactive) | > 100 µM (inactive) | > 100 µM (inactive) | > 100 µM (inactive) | > 100 µM (inactive) | > 100 µM (inactive) | > 100 µM (inactive) | > 100 µM (inactive) | > 100 µM (inactive) | > 100 µM (inactive) | > 100 µM (inactive) | > 100 µM (inactive) | > 100 µM (inactive) | > 100 µM (inactive)
Cc1ccc(/C=C2\CN(C)CC3C(c4ccc(C)cc4)=C(C#N)C(=O)NC23)cc1 (stereo unspecified) | > 50 µM (inactive) | > 50 µM (inactive) | > 50 µM (inactive) | > 50 µM (inactive) | > 50 µM (inactive) | > 50 µM (inactive) | > 50 µM (inactive) | > 50 µM (inactive) | > 50 µM (inactive) | > 50 µM (inactive) | > 50 µM (inactive) | > 50 µM (inactive) | > 50 µM (inactive) | > 50 µM (inactive) | > 50 µM (inactive) | > 50 µM (inactive) | > 50 µM (inactive) | 48.2 µM (inactive) | > 50 µM (inactive) | 
C#CC(O)/C=C/C(O)CCCC(O)CC#CC(O)C#CC(O)CCCC(O)/C=C/CCCC(=O)CCCCCCCCCCCCCCCC(O)C(O)C#CC(=O)O (stereo unspecified) | > 50 µM (inactive) | > 50 µM (inactive) | > 50 µM (inactive) | > 50 µM (inactive) | > 50 µM (inactive) | 28.1 µM (inactive) | > 50 µM (inactive) | > 50 µM (inactive) | > 50 µM (inactive) | 43.6 µM (inactive) | > 50 µM (inactive) | > 50 µM (inactive) | > 50 µM (inactive) | > 50 µM (inactive) | 12.5 µM (inactive) |  | > 50 µM (inactive) | > 50 µM (inactive) | > 50 µM (inactive) | 10.8 µM (inactive)
